Among the data in US20120270237A9, “METHODS FOR THE IDENTIFICATION OF KINASE INTERACTING MOLECULES AND FOR THE PURIFICATION OF KINASE PROTEINS” (Cellzone AG, priority 2009, published 2012) are inhibition values, retold here.

Assay in all cases: Kinobeads competition binding, HL60 cell lysate
What all share (details): 10 μM free compound

The target of one test is T1, TEC (Homo sapiens, UniProt P42680).
T1 sequence (P42680 1-631): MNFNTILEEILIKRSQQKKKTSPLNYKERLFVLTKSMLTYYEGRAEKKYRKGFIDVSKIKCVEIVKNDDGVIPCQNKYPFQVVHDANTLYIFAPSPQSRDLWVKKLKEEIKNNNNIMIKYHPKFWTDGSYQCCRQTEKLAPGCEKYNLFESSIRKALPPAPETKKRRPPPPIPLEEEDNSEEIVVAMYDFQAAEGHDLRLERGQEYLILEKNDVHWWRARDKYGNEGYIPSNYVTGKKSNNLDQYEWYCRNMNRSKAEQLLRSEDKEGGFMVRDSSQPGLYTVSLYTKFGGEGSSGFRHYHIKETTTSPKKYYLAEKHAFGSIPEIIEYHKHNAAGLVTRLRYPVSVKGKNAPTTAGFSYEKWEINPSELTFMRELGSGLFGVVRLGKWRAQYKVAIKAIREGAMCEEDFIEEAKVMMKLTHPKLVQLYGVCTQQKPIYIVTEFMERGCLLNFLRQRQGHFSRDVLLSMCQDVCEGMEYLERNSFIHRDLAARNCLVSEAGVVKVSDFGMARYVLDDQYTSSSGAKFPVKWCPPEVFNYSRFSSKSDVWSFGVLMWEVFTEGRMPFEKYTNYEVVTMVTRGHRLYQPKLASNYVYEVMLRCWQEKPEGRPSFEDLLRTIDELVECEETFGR
Here is the method:
(§1) To one aliquot of cell lysate 10 μM of the free compound (FIG. 3, CZC31326) was added and allowed to bind to proteins in the lysate. Then the affinity matrix with the immobilized compound (Example 1) was added to capture proteins that were not interacting with the previously added free compound. Beads were separated from the lysate and bead bound proteins were eluted in SDS sample buffer and subsequently separated by SDS-Polyacrylamide gel electrophoresis (FIG. 4). Suitable gel bands were cut out and subjected to in-gel proteolytic digestion with trypsin. The second lysate aliquot was processed identically, however no free compound was added (DMSO solvent control). Peptides originating from samples 1 and 2 were labeled with iTRAQ reagents (iTRAQ 114 and iTRAQ 117) and the combined samples were analyzed with a nano-flow liquid chromatography system coupled online to a tandem mass spectrometer (LC-MS/MS) experiment followed by iTRAQ reporter ion quantification in the MS/MS spectra (Ross et al., 2004. Mol. Cell. Proteomics 3(12):1154-1169). Further experimental protocols can be found in WO2006/134056 and a previous publication (Bantscheff et al., 2007. Nature Biotechnology 25, 1035-1044). Sepharose-beads with the immobilized compound (100 μl beads per pull-down experiment) were equilibrated in lysis buffer and incubated with a cell lysate sample containing 50 mg of protein on an end-over-end shaker (Roto Shake Genie, Scientific Industries Inc.) for 2 hours at 4° C. Beads were collected, transferred to Mobicol-columns (MoBiTech 10055) and washed with 10 ml lysis buffer containing 0.4% NP40 detergent, followed by 5 ml lysis buffer containing 0.2% detergent. To elute bound proteins, 60 μl 2×SDS sample buffer was added to the column. The column was incubated for 30 minutes at 50° C. and the eluate was transferred to a siliconized microfuge tube by centrifugation. Proteins were then alkylated with 108 mM iodoacetamid. Proteins were then separated by SDS-Polyacrylamide electrophoresis (SDS-PAGE). The peptide extracts of samples treated with 10 μM of free compound (CZC31326) and the solvent control (0.5% DMSO) were treated with different variants of the isobaric tagging reagent (iTRAQ Reagents Multiplex Kit, part number 4352135, Applied Biosystems, Foster City, Calif., USA). The iTRAQ reagents are a set of multiplexed, amine-specific, stable isotope reagents that can label peptides on amino groups in up to four different biological samples enabling simultaneous identification and quantitation of peptides. The iTRAQ reagents were used according to instructions provided by the manufacturer. The samples were resuspended in 10 μl 50 mM TEAB solution, pH 8.5 and 10 μl ethanol were added. The iTRAQ reagent was dissolved in 120 μl ethanol and 10 μl of reagent solution were added to the sample. The labeling reaction was performed at room temperature for one hour on a horizontal shaker and stopped by adding 5 μl of 100 mM TEAB and 100 mM glycine in water. The two labeled sampled were then combined, dried in a vacuum centrifuge and resuspended in 10 μl of 0.1% formic acid in water. Relative protein quantitation was performed using peak areas of iTRAQ reporter ion signals essentially as described in an earlier publication (Bantscheff et al., 2007. Nature Biotechnology 25, 1035-1044).

The next test has as its target T2, ALK4 (Homo sapiens, UniProt P36896).
T2 construct: endogenous in cells; host or cells: HL60 cells
On the procedure: as §1

Another test deals with T3, KHS1 (Homo sapiens, UniProt Q9Y4K4).
T3 construct: Identified kinases with CZC31326 from HL60 lysate; endogenous in cells; host or cells: HL60
On the procedure:
as §1

The target of another test is T4, MST4 (Homo sapiens, UniProt Q9P289).
T4 construct: endogenous in cells; host or cells: HL60
Here is the method:
as §1

Another test deals with T5, MSK1 (Homo sapiens, UniProt O75582).
T5 construct: endogenous in cells; host or cells: HL60
On the procedure:
as §1

A further test addresses T6, PKCb (Homo sapiens, UniProt P05771).
T6 construct: endogenous in cells; host or cells: HL60
Here is the method:
as §1

T2 sequence (P36896 24-505): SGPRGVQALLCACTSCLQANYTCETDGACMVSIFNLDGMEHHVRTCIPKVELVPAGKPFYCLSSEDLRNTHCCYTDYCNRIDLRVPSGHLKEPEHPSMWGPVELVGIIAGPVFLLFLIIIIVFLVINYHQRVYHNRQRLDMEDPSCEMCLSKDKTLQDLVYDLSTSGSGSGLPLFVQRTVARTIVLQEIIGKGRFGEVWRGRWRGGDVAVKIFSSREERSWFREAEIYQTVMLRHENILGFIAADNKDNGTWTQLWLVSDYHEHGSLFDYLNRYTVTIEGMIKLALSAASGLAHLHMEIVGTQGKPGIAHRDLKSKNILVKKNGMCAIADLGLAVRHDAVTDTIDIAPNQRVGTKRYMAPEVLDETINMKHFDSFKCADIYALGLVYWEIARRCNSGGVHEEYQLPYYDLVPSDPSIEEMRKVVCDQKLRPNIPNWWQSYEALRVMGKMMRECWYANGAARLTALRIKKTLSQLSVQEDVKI
T4 sequence (Q9P289 whole entry): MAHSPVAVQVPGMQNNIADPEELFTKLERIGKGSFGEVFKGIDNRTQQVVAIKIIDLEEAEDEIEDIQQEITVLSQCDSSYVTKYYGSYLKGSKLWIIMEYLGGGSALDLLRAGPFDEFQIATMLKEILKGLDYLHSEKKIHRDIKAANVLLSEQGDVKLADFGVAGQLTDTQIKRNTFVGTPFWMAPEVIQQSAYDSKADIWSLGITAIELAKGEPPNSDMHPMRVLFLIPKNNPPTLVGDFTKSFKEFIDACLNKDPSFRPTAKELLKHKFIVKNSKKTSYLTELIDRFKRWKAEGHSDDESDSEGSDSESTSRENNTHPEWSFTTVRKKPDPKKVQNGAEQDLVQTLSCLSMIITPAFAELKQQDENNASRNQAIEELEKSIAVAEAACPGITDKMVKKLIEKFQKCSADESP
T3 sequence (Q9Y4K4 whole entry): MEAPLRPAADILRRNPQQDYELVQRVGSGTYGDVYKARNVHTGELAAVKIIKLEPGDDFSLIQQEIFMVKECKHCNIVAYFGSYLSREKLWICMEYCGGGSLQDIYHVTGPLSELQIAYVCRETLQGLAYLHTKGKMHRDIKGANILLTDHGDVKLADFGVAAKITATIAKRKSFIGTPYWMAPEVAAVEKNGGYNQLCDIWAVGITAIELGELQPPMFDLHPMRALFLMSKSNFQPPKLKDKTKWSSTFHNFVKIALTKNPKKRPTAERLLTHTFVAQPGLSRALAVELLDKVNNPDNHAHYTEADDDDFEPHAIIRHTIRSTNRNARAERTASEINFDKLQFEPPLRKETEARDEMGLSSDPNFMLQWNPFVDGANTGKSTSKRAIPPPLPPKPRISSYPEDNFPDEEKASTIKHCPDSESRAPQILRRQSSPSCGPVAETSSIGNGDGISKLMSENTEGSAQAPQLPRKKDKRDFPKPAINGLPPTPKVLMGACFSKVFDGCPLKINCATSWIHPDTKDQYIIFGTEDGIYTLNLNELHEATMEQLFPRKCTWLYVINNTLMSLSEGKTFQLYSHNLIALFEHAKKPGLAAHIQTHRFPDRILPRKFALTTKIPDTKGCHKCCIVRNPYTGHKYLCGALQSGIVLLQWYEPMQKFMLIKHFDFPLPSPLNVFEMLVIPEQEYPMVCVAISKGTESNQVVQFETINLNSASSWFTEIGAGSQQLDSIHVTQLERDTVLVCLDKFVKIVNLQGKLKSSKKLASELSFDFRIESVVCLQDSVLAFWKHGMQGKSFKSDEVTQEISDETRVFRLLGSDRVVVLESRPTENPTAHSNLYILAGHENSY
T5 sequence (O75582 whole entry): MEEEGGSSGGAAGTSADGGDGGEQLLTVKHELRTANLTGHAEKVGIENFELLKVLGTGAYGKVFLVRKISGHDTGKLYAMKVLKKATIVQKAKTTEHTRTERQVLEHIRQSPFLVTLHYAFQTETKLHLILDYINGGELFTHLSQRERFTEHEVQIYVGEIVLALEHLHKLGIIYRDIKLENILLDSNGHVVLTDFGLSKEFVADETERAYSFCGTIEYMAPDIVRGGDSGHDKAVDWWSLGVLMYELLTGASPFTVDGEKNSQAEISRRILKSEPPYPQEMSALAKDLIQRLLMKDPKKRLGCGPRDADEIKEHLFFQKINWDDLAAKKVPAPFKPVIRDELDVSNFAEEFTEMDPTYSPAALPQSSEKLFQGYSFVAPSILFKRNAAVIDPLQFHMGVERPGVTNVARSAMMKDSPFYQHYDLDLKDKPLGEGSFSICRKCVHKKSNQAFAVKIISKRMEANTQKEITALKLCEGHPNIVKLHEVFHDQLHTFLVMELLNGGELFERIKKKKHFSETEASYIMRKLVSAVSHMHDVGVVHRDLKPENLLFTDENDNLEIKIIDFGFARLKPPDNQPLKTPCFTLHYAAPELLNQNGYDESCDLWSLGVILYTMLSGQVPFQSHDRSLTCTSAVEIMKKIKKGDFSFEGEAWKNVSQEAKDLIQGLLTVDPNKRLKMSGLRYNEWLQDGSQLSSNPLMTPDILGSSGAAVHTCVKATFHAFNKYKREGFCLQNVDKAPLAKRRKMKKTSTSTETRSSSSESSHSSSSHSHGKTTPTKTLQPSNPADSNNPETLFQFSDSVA
T6 sequence (P05771 whole entry): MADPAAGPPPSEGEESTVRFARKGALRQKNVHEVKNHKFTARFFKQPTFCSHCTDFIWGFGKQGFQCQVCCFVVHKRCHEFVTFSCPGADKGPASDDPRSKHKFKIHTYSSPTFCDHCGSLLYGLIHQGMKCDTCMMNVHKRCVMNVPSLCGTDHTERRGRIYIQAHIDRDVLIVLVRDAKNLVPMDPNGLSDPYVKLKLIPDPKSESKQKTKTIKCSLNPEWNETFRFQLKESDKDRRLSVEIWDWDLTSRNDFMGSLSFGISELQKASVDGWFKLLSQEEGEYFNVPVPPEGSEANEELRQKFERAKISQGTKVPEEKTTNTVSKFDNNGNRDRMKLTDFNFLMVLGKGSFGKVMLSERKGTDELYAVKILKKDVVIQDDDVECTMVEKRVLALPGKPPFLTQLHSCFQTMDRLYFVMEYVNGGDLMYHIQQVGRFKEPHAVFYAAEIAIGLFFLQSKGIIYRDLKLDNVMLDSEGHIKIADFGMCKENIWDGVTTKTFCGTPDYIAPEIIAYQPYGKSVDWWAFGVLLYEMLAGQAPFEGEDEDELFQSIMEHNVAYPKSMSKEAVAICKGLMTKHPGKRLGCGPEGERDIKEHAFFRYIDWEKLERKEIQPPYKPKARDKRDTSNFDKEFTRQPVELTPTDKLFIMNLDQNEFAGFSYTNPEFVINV

Broadly, the inhibition is the relative decrease from the control value, in per cent. A high value points to a response far below the control. Regarding `CS(=O)(=O)Nc1ccccc1Nc1nc(Nc2cccc(OCCN)c2)ncc1Cl` [CZC31326, N-(2-(2-(3-(2-aminoethoxy)phenylamino)-5-chloropyrimidin-4-ylamino)phenyl)methanesulfonamide], the inhibition at 10 µM at TEC was 97%; on ALK4, 94.5%; at KHS1, 93.2%; at MST4, 96.1%; on MSK1, 94.7%; at PKCb, 97.3%.
